Source: US7202255B2, “Substituted [1,4] benzodioxino[2,3-e] isoindole derivatives, method for preparing and pharmaceutical compositions containing same” (Les Laboratoires Servier, priority 2002, dated 2007)
Structures can show the parent of a compound that is named as a salt.

SMILES | melting point
Cn1c(=O)c2c3oc4ccccc4oc3c3c(c4ccccc4n3C(=O)OC(C)(C)C)c2c1=O [Example 5, tert-Butyl 7-methyl-6,8-dioxo-7,8-dihydro[1,4]benzodioxino[2,3-a]-pyrrolo[3,4-c]carbazole-13(6H)-carboxylate] | 189 °C (dec.)
CC(C)(C)OC(=O)n1c2cc(OCc3ccccc3)ccc2c2c3c(c(Oc4ccccc4O)cc21)C(=O)NC3=O [Example 30, tert-Butyl 8-(benzyloxy)-4-(2-hydroxyphenoxy)-1,3-dioxo-2,3-dihydropyrrolo[3,4-c]carbazole-6(1H)-carboxylate] | 198 °C
CN(C)CCn1c(=O)c2c3oc4ccccc4oc3c3[nH]c4ccc(OCc5ccccc5)cc4c3c2c1=O [Example 19, 10-(Benzyloxy)-7-[2-(dimethylamino)ethyl][1,4]benzodioxino[2,3-a]-pyrrolo[3,4-c]carbazole-6,8(7H,13H)-dione] | 254 °C (dec.)
COc1ccccc1Oc1cc2[nH]c3ccccc3c2c2c1C(=O)N(C)C2=O [Example 35, 4-(2-Methoxyphenoxy)-2-methylpyrrolo[3,4-c]carbazole-1,3(2H,6H)-dione] | 228 °C
CN(C)CCn1c(=O)c2c3oc4ccccc4oc3c3[nH]c4ccccc4c3c2c1=O [Example 7, 7-[2-(Dimethylamino)ethyl][1,4]benzodioxino[2,3-a]pyrrolo[3,4-c]-carbazole-6,8(7H,13H)-dione] | 298 °C (dec.)
COc1ccccc1Oc1cc2c(c3c1C(=O)N(C)C3=O)c1ccccc1n2C(=O)OC(C)(C)C [Example 34, tert-Butyl 4-(2-methoxyphenoxy)-2-methyl-1,3-dioxo-2,3-dihydropyrrolo[3,4-c]carbazole-6(1H)-carboxylate] | > 333 °C
Cn1c(=O)c2c3oc4ccccc4oc3c3c(oc4cccnc4n3C(=O)Oc3ccccc3)c2c1=O [Example 3, Phenyl 7-methyl-6,8-dioxo-7,8-dihydro[1,4]benzodioxino[2,3-e]-pyrido[2′,3′:5,6][1,4]oxazino[3,2-g]isoindole-15(6H)-carboxylate] | > 250 °C
O=c1[nH]c(=O)c2c1c1oc3ccccc3oc1c1[nH]c3cc(O)ccc3c12 [Example 28, 11-Hydroxy[1,4]benzodioxino[2,3-a]pyrrolo[3,4-c]carbazole-6,8(7H,13H)-dione] | > 340 °C
CC(C)(C)OC(=O)n1c2ccc(OCc3ccccc3)cc2c2c3c(=O)[nH]c(=O)c3c3oc4ccccc4oc3c21 [Example 25, tert-Butyl 10-(benzyloxy)-6,8-dioxo-7,8-dihydro[1,4]benzo-dioxino[2,3-a]pyrrolo[3,4-c]carbazole-13(6H)-carboxylate] | > 304 °C
CN(C)CCn1c(=O)c2c3oc4ccccc4oc3c3[nH]c4cc(OCc5ccccc5)ccc4c3c2c1=O [Example 23, 11-(Benzyloxy)-7-[2-(dimethylamino)ethyl][1,4]benzodioxino[2,3-a]-pyrrolo[3,4-c]carbazole-6,8(7H,13H)-dione] | 262 °C (dec.)
Cn1c(=O)c2c3oc4ccccc4oc3c3[nH]c4cc(F)ccc4c3c2c1=O [Example 13, 11-Fluoro-7-methyl[1,4]benzodioxino[2,3-a]pyrrolo[3,4-c]carbazole-6,8(7H,13H)-dione] | > 360 °C
CN1C(=O)c2c(Oc3ccccc3O)cc3c(c2C1=O)c1ccccc1n3C(=O)OC(C)(C)C [Example 33, tert-Butyl 4-(2-hydroxyphenoxy)-2-methyl-1,3-dioxo-2,3-dihydropyrrolo[3,4-c]carbazole-6(1H)-carboxylate] | 182 °C (dec.)
CN1C(=O)c2c(Oc3ccccc3O)cc3[nH]c4cc(O)ccc4c3c2C1=O [Example 41, 8-Hydroxy-4-(2-hydroxyphenoxy)-2-methylpyrrolo[3,4-c]-carbazole-1,3(2H,6H)-dione] | 200 °C
Cn1c(=O)c2c3oc4ccccc4oc3c3[nH]c4cc(O)ccc4c3c2c1=O [Example 22, 11-Hydroxy-7-methyl[1,4]benzodioxino[2,3-a]pyrrolo[3,4-c]-carbazole-6,8(7H,13H)-dione] | 360 °C
CN1C(=O)c2c(Oc3ccccc3O)cc3c(c2C1=O)c1cc(OCc2ccccc2)ccc1n3C(=O)OC(C)(C)C [Example 31, tert-Butyl 9-(benzyloxy)-4-(2-hydroxyphenoxy)-2-methyl-1,3-dioxo-2,3-dihydropyrrolo[3,4-c]carbazole-6(1H)-carboxylate] | 170 °C
Cn1c(=O)c2c3oc4ccccc4oc3c3c(oc4ccccc4n3C(=O)Oc3ccccc3)c2c1=O [Example 1, Phenyl 7-methyl-6,8-dioxo-7,8-dihydro[1,4]benzodioxino[2,3-a]-pyrrolo[3,4-c]phenoxazine-15(6H)carboxylate] | 130 °C
Cn1c(=O)c2c3oc4ccccc4oc3c3[nH]c4ccc(F)cc4c3c2c1=O [Example 11, 10-Fluoro-7-methyl[1,4]benzodioxino[2,3-a]pyrrolo[3,4-c]carbazole-6,8(7H,13H)-dione] | > 355 °C
CN(C)CCn1c(=O)c2c3oc4ccccc4oc3c3[nH]c4cc(F)ccc4c3c2c1=O [Example 14, 7-[2-(Dimethylamino)ethyl]-11-fluoro[1,4]benzodioxino[2,3-a]-pyrrolo[3,4-c]carbazole-6,8(7H,13H)-dione] | 301 °C (dec.)
CN1C(=O)c2c(Oc3ccccc3OS(=O)(=O)C(F)(F)F)cc3c(c2C1=O)c1ccccc1n3C(=O)OC(C)(C)C [Example 37, tert-Butyl 2-methyl-1,3-dioxo-4-(2-{[(trifluoromethyl)sulphonyl]-oxy}phenoxy)-2,3-dihydropyrrolo[3,4-c]carbazole-6(1H)-carboxylate] | 182 °C
CC(C)(C)OC(=O)n1c2cc(OCc3ccccc3)ccc2c2c3c(=O)[nH]c(=O)c3c3oc4ccccc4oc3c21 [Example 27, tert-Butyl 11-(benzyloxy)-6,8-dioxo-7,8-dihydro[1,4]benzo-dioxino[2,3-a]pyrrolo[3,4-c]carbazole-13(6H)-carboxylate] | 199 °C
CN(C)CCn1c(=O)c2c3oc4ccccc4[nH]c3c3oc4ccccc4oc3c2c1=O [Example 2, 7-[2-(Dimethylamino)ethyl][1,4]benzodioxino[2,3-a]pyrrolo[3,4-c]-phenoxazine-6,8(7H,15H)-dione] | 150 °C
CN1C(=O)c2c(Oc3ccccc3OS(=O)(=O)C(F)(F)F)cc3c(c2C1=O)c1ccc(OCc2ccccc2)cc1n3C(=O)OC(C)(C)C [Example 40, tert-Butyl 8-(benzyloxy)-2-methyl-1,3-dioxo-4-(2-{[(trifluoro-methyl)sulphonyl]oxy}phenoxy)-2,3-dihydropyrrolo[3,4-c]-carbazole-6(1H)-carboxylate] | 186 °C
CN(C)CCn1c(=O)c2c3oc4ccccc4oc3c3[nH]c4cc(O)ccc4c3c2c1=O [Example 24, 7-[2-(Dimethylamino)ethyl]-11-hydroxy[1,4]benzodioxino[2,3-a]-pyrrolo[3,4-c]carbazole-6,8(7H,13H)-dione] | > 360 °C
CN1C(=O)c2c(Oc3ccccc3OS(=O)(=O)C(F)(F)F)cc3[nH]c4ccccc4c3c2C1=O (as salt: methanesulphonate) [Example 38, 2-[(2-Methyl-1,3-dioxo-1,2,3,6-tetrahydropyrrolo[3,4-c]carbazol-4-yl)oxy]phenyl trifluoromethanesulphonate] | 214 °C
CN1C(=O)c2c(Oc3ccccc3O)cc3[nH]c4ccc(O)cc4c3c2C1=O [Example 32, 9-Hydroxy-4-(2-hydroxyphenoxy)-2-methylpyrrolo[3,4-c]-carbazole-1,3(2H,6H)-dione] | 277 °C (dec.)
CN1C(=O)c2c(Oc3ccccc3O)cc3c(c2C1=O)c1ccc(OCc2ccccc2)cc1n3C(=O)OC(C)(C)C [Example 39, tert-Butyl 8-(benzyloxy)-4-(2-hydroxyphenoxy)-2-methyl-1,3-dioxo-2,3-dihydropyrrolo[3,4-c]carbazole-6(1H)-carboxylate] | 191 °C
CN(C)CCn1c(=O)c2c3oc4ccccc4oc3c3[nH]c4ccc(F)cc4c3c2c1=O [Example 12, 7-[2-(Dimethylamino)ethyl]-10-fluoro[1,4]benzodioxino[2,3-a]-pyrrolo[3,4-c]carbazole-6,8(7H,13H)-dione] | 337 °C (dec.)
CN(C)CCn1c(=O)c2c3oc4ccccc4oc3c3[nH]c4ccc(O)cc4c3c2c1=O [Example 20, 7-[2-(Dimethylamino)ethyl]-10-hydroxy[1,4]benzodioxino[2,3-a]-pyrrolo[3,4-c]carbazole-6,8(7H,13H)-dione] | > 360 °C
Cn1c(=O)c2c3oc4ccccc4oc3c3[nH]c4ccc(O)cc4c3c2c1=O [Example 18, 10-Hydroxy-7-methyl[1,4]benzodioxino[2,3-a]pyrrolo[3,4-c]-carbazole-6,8(7H,13H)-dione] | > 350 °C
CN(C)CCn1c(=O)c2c3oc4cccnc4[nH]c3c3oc4ccccc4oc3c2c1=O [Example 4, 7-[2-(Dimethylamino)ethyl][1,4]benzodioxino[2,3-e]pyrido[2′,3′:5,6]-[1,4]oxazino[3,2-g]isoindole-6,8(7H,15H)-dione] | 150 °C (dec.)
